Data on one compound can be found in US9629869B2, “Application of fructus schisandrae total polysaccharides in preparatoin of medicine or nutraceuticals used for treating coughing” (priority 2014, dated 2017).

Holding throughout (format): in vivo, guinea pig
Assay [1] concerns BALF inflammatory cells of guinea pigs with increased cough sensitivity induced by cigarette smoke. Kind of assay: Total number and classification of BALF inflammatory cells, cigarette smoke guinea pigs (Embodiment I). As to conditions: codeine group 30 mg/kg oral once, n = 7-10. On the procedure: 1.1 Smoking method: prior to the experiment, after being adaptively raised quietly for one week, the guinea pigs are placed in a self-made cigarette poisoning box; ten cigarettes are fired every time and placed in a smoking trough (flume-cured tobacco type, content of tar is 12 mg, content of nicotine in smoke is 1.1 mg, and content of carbon oxide in the smoke is 15 mg); and the cigarette smoke is led into the poisoning box by three-way valve, and the timing is started after the cigarette is burnt out. The guinea pigs are smoked for 20 minutes every time and twice a day; and the smoking interval time between two adjacent smoking is greater than 6 h; and the guinea pigs are consecutively smoked for 14 days.
The guinea pigs are randomly divided into a normal group, a model group, a solvent reference group (0.5% PEG400), a codeine group, a water extract high dose group (dose: 500 mg/kg guinea pig/day: drug concentration: […]), a total polysaccharides high dose group (dose: 500 mg/kg guinea pig/day; drug concentration: 50 mg/mL), a total polysaccharides middle dose group (dose: 250 mg/kg guinea pig/day; drug concentration: 25 mg/mL) and a total polysaccharides low dose group (dose: 125 mg/kg guinea pig/day, drug concentration: 12.5 mg/mL).
Except for the normal group, animals in other groups are respectively stimulated by adopting the smoking method described in the above 1.1. Except for the normal group and the codeine group, the guinea pigs in the other groups are orally given with the corresponding drugs or solvent two hours before the second smoking for 14 consecutive days from the first day of smoking. The guinea pigs of the codeine group is orally administrated (30 mg/kg guinea pig; the codeine concentration: 3 mg/mL) one hour before the citric acid cough sensitivity check. The guinea pigs of the normal group are normally raised without any treatment. The guinea pigs are placed in a plethysmogrophy box at the 15th day; two minutes later, 0.4 mol/L citric acid aqueous solution is atomized to perform the cough stimulation, and the atomizing is ended in 10 minutes; the guinea pigs are continuously observed for 10 minutes; and the coughing times and coughing latent period of the guinea pigs in 20 minutes after the atomizing is started are recorded.
Intraperitoneal injection with 3% pentobarbital sodium solution (1 mL/kg) is performed to anesthetize the animal in 24 hours after the cough stimulation test, and 10 mL of blood is taken from the heart of the animal. The bronchoalveolar lavage fluid (BALF) is obtained by taking 6 mL of 0.1 mol/L pre-cooled PBS buffer solution, performing the bronchoalveolar lavage for three times, and uniformly lavaging the left lung repeatedly for three times. […]

Assay [2] concerns acute cough guinea pigs induced by citric acid smoke. Description: Acute cough of guinea pigs induced by citric acid smoke, five days of dosing (Embodiment II). The conditions noted are these: 30 mg/kg oral once, one hour before stimulation at fifth day, x ± s, n = 8. The protocol: After the guinea pigs are quietly raised for one week, the cough sensitivity screening is carried out: the guinea pigs is stimulated for one minute by atomizing 0.8 mol/L citric acid and continuously observed for five minutes; the coughing times of the guinea pigs in 6 minutes after the atomizing is started is recorded; and the guinea pigs with the coughing times greater than 10 times and less than 50 times are the qualified guinea pigs. […]
Except for the normal group and the codeine group, the guinea pigs in the rest groups are orally given with drugs or solvent consecutively for five days and once a day; and the citric acid cough stimulation is carried out in one hour after the guinea pigs are given with the drug or solvent at the fifth day: the guinea pigs are stimulated for one minute by atomizing 0.8 mol/L citric acid and are continuously observed for 5 minutes after the atomizing is stopped, and the coughing times of the guinea pigs in 6 minutes after the atomizing is started is recorded. […]

Assay [3] concerns guinea pigs with increased cough sensitivity induced by cigarette smoke. Description: Citric acid cough stimulation of guinea pigs with increased cough sensitivity induced by cigarette smoke (Embodiment I). The conditions noted are these: 30 mg/kg oral once, one hour before citric acid check, x ± s, n = 7-10. The protocol:
Experimental animals used in the specific embodiments are ordinary male pure white Hartly guinea pigs each with a weight of 300±50 g which are supplied by the Laboratory Animal Center of Guangdong Province (SCXK (Guang) 2008-0002). The guinea pigs are raised in a relatively clean and quiet environment with constant temperature (23±3° C.) and constant humidity (55±15%); the diurnal cycle is 12:12 h/day; and the guinea pigs are raised in different cages, and every five guinea pigs are raised in one cage and can obtain food and water freely. […]
Except for the normal group, animals in other groups are respectively stimulated by adopting the smoking method described in the above 1.1. […] The guinea pigs are placed in a plethysmogrophy box at the 15th day; two minutes later, 0.4 mol/L citric acid aqueous solution is atomized to perform the cough stimulation, and the atomizing is ended in 10 minutes; the guinea pigs are continuously observed for 10 minutes; and the coughing times and coughing latent period of the guinea pigs in 20 minutes after the atomizing is started are recorded.

In assay [4] the test system is citric acid smoke stimulation-caused guinea pigs. Kind of assay: Coughing times of citric acid smoke stimulated guinea pigs at different time points after one dose (Embodiment III). The conditions noted are these: 5 hours after one oral dose of 30 mg/kg; FIG. 2. The protocol:
After the guinea pigs are quietly raised for one week, the cough sensitivity is screened: the guinea pigs are stimulated for one minute by atomizing 0.8 mol/L citric acid and continuously observed for five minutes after the atomizing is stopped; the coughing times of the guinea pigs in 6 minutes after the atomization is started is recorded; and the guinea pigs with the coughing times greater than 10 times and less than 50 times are the qualified guinea pigs.
The qualified guinea pigs are selected to be normally raised for three days and randomly divided into four groups with 30 guinea pigs in each group. The guinea pigs in the first group are divided into three subgroups with 10 guinea pigs in each subgroup, and all guinea pigs are directly under the citric acid cough stimulation: the guinea pigs are stimulated for one minute by atomizing 0.8 mol/L citric acid and are continuously observed for 5 minutes after the atomization is stopped, and the coughing times of the guinea pigs in 6 minutes after the atomization is started is recorded. […]

Each structure is given as a SMILES string.

Turning to `COc1ccc2c3c1O[C@H]1[C@@H](O)C=C[C@H]4[C@@H](C2)N(C)CC[C@@]341` [Codeine], the Eos % in assay [1] (BALF eosinophils, mean) amounted to 4.25%. In assay [1] (BALF lymphocytes, mean), this compound returned a Lym % of 3.64%. For the same compound, in assay [1] (BALF macrophages, mean), the Mac % came to 43.86%. Moreover, the Neu % in assay [1] (BALF neutrophils, mean) was determined as 48.10%. The “total number of cells * 10^6/mL” value in assay [1] (BALF, x ± s) is given as 2.13 ± 0.38 10^6/mL. In addition, the Coughing times in assay [2] (0.8 mol/L citric acid, 6 min count) is reported as 3.83 ± 1.94; in assay [3] (0.4 mol/L citric acid, day 15, 20 min count), 37.29 ± 11.64. Further, the “Coughing latent period” value is on record as 115.3 ± 20.18 s in assay [2] and 186.14 ± 45.27 s in assay [3] (day 15). Moreover, in assay [4], the “coughing times compared with the normal group” value is “no significant difference”.
